{"source": "patent US20240408086A1", "about": "“USE OF LUVADAXISTAT FOR THE TREATMENT OF COGNITIVE IMPAIRMENT” (TAKEDA PHARMACEUTICAL COMPANY LIMITED, priority 2021, published 2024)", "tested_on": "adult patients with persistent negative symptoms of schizophrenia", "type": "in vivo, human", "source_text": "To assess changes in cognitive impairment associated with schizophrenia (CIAS), secondary endpoints included the 12-week change from baseline in the Brief Assessment of Cognition in Schizophrenia (BACS) composite score, a measure of cognition across multiple domains, and the Schizophrenia Cognition Rating Scale (SCORS) score, a measure of day-to-day cognitive functioning requiring input from an adult informant. Secondary endpoints were not corrected for multiplicity.\nThe BACS is specifically designed to measure treatment-related improvements in cognition and includes alternate forms. BACS is a reliable and sensitive measure of cognitive function in schizophrenia. The BACS is a cognition assessment battery that assesses 6 domains of cognitive function found to be consistently impaired in schizophrenia: verbal memory; working memory; motor speed; attention; executive functions; and verbal fluency. The primary measure from each test of the BACS is standardized by creating T-scores whereby the mean of the test session of a matched reference healthy participant is set to 50 and the standard deviation set to 10.", "key": {"[1]": {"settings": "50 mg once daily, MMRM, preliminary analysis"}, "[2]": {"settings": "50 mg once daily, preliminary analysis"}}}
{"smiles": "O=c1[nH]nc(CCc2ccc(C(F)(F)F)cc2)cc1O", "note": "[Compound (I), luvadaxistat]", "values": [{"measurement": "BACS composite score, effect size versus placebo", "setting": "50 mg once daily, 12 weeks, p=0.031, not corrected for multiplicity", "result": 0.4}, {"measurement": "BACS Verbal Memory Cognition Domain, Difference from Placebo for Week 12, LS Mean (SE)", "setting": "50 mg once daily, MMRM, one-sided unadjusted p 0.038, preliminary analysis", "result": "2.6 (1.43)"}, {"measurement": "BACS Composite Score, Difference from Placebo for Week 12, LS Mean (SE)", "setting": "50 mg once daily, MMRM, one-sided unadjusted p 0.046, preliminary analysis", "result": "1.9 (1.15)"}, {"measurement": "BACS Verbal Memory Cognition Domain, Difference from Placebo for Week 6, LS Mean (SE)", "setting": "50 mg once daily, MMRM, one-sided unadjusted p 0.071, preliminary analysis", "result": "1.9 (1.29)"}, {"measurement": "BACS Composite Score, Difference from Placebo for Week 6, LS Mean (SE)", "setting": "50 mg once daily, MMRM, one-sided unadjusted p 0.096, preliminary analysis", "result": "1.3 (1.01)"}, {"measurement": "BACS Motor Speed Cognition Domain, Difference from Placebo for Week 12, LS Mean (SE)", "setting": "50 mg once daily, MMRM, one-sided unadjusted p 0.101, preliminary analysis", "result": "1.5 (1.17)"}, {"measurement": "BACS Working Memory Cognition Domain, Difference from Placebo for Week 12, LS Mean (SE)", "setting": "50 mg once daily, MMRM, one-sided unadjusted p 0.413, preliminary analysis", "result": "0.3 (1.34)"}, {"measurement": "BACS Motor Speed Cognition Domain, Difference from Placebo for Week 6, LS Mean (SE)", "setting": "50 mg once daily, MMRM, one-sided unadjusted p 0.440, preliminary analysis", "result": "0.2 (1.26)"}, {"measurement": "BACS Working Memory Cognition Domain, Difference from Placebo for Week 6, LS Mean (SE)", "setting": "50 mg once daily, MMRM, one-sided unadjusted p 0.507, preliminary analysis", "result": "0.0 (1.15)"}, {"measurement": "BACS Composite Score, Adjusted Change from Baseline to Week 6, LS Mean (SE)", "setting": "[1]", "result": "0.9 (0.81)"}, {"measurement": "BACS Composite Score, Adjusted Change from Baseline to Week 12, LS Mean (SE)", "setting": "[1]", "result": "2.7 (0.92)"}, {"measurement": "BACS Motor Speed Cognition Domain, Adjusted Change from Baseline to Week 6, LS Mean (SE)", "setting": "[1]", "result": "0.1 (1.00)"}, {"measurement": "BACS Motor Speed Cognition Domain, Adjusted Change from Baseline to Week 12, LS Mean (SE)", "setting": "[1]", "result": "1.0 (0.93)"}, {"measurement": "BACS Verbal Memory Cognition Domain, Adjusted Change from Baseline to Week 6, LS Mean (SE)", "setting": "[1]", "result": "0.6 (1.04)"}, {"measurement": "BACS Verbal Memory Cognition Domain, Adjusted Change from Baseline to Week 12, LS Mean (SE)", "setting": "[1]", "result": "1.9 (1.13)"}, {"measurement": "BACS Working Memory Cognition Domain, Adjusted Change from Baseline to Week 6, LS Mean (SE)", "setting": "[1]", "result": "0.0 (0.92)"}, {"measurement": "BACS Working Memory Cognition Domain, Adjusted Change from Baseline to Week 12, LS Mean (SE)", "setting": "[1]", "result": "0.9 (1.06)"}, {"measurement": "BACS composite score, 12-week LS mean change from baseline", "setting": "50 mg once daily, placebo 2.3", "result": 4.6}, {"measurement": "BACS Composite Score, Change from Baseline to Week 6, Mean (SD)", "setting": "[2]", "result": "1.7 (5.81)"}, {"measurement": "BACS Composite Score, Change from Baseline to Week 6, Median", "setting": "[2]", "result": 2.0}, {"measurement": "BACS Composite Score, Change from Baseline to Week 12, Mean (SD)", "setting": "[2]", "result": "3.8 (5.91)"}, {"measurement": "BACS Composite Score, Change from Baseline to Week 12, Median", "setting": "[2]", "result": 3.0}, {"measurement": "BACS Composite Score, Week 6, Mean (SD)", "setting": "[2]", "result": "35.4 (14.53)"}, {"measurement": "BACS Composite Score, Week 6, Median", "setting": "[2]", "result": 34.0}, {"measurement": "BACS Composite Score, Week 12, Mean (SD)", "setting": "[2]", "result": "37.7 (13.30)"}, {"measurement": "BACS Composite Score, Week 12, Median", "setting": "[2]", "result": 37.5}, {"measurement": "BACS Motor Speed Cognition Domain, Change from Baseline to Week 6, Mean (SD)", "setting": "[2]", "result": "1.7 (5.73)"}, {"measurement": "BACS Motor Speed Cognition Domain, Change from Baseline to Week 6, Median", "setting": "[2]", "result": 1.0}, {"measurement": "BACS Motor Speed Cognition Domain, Change from Baseline to Week 12, Mean (SD)", "setting": "[2]", "result": "2.6 (6.80)"}, {"measurement": "BACS Motor Speed Cognition Domain, Change from Baseline to Week 12, Median", "setting": "[2]", "result": 1.0}, {"measurement": "BACS Motor Speed Cognition Domain, Week 6, Mean (SD)", "setting": "[2]", "result": "40.6 (13.61)"}, {"measurement": "BACS Motor Speed Cognition Domain, Week 6, Median", "setting": "[2]", "result": 40.0}, {"measurement": "BACS Motor Speed Cognition Domain, Week 12, Mean (SD)", "setting": "[2]", "result": "42.0 (12.93)"}, {"measurement": "BACS Motor Speed Cognition Domain, Week 12, Median", "setting": "[2]", "result": 41.5}, {"measurement": "BACS Verbal Memory Cognition Domain, Change from Baseline to Week 6, Mean (SD)", "setting": "[2]", "result": "1.6 (7.40)"}, {"measurement": "BACS Verbal Memory Cognition Domain, Change from Baseline to Week 6, Median", "setting": "[2]", "result": 0.0}, {"measurement": "BACS Verbal Memory Cognition Domain, Change from Baseline to Week 12, Mean (SD)", "setting": "[2]", "result": "3.2 (7.87)"}, {"measurement": "BACS Verbal Memory Cognition Domain, Change from Baseline to Week 12, Median", "setting": "[2]", "result": 4.0}, {"measurement": "BACS Verbal Memory Cognition Domain, Week 6, Mean (SD)", "setting": "[2]", "result": "41.7 (11.59)"}, {"measurement": "BACS Verbal Memory Cognition Domain, Week 6, Median", "setting": "[2]", "result": 44.5}, {"measurement": "BACS Verbal Memory Cognition Domain, Week 12, Mean (SD)", "setting": "[2]", "result": "42.9 (12.41)"}, {"measurement": "BACS Verbal Memory Cognition Domain, Week 12, Median", "setting": "[2]", "result": 43.5}, {"measurement": "BACS Working Memory Cognition Domain, Change from Baseline to Week 6, Mean (SD)", "setting": "[2]", "result": "1.0 (6.60)"}, {"measurement": "BACS Working Memory Cognition Domain, Change from Baseline to Week 6, Median", "setting": "[2]", "result": 0.0}, {"measurement": "BACS Working Memory Cognition Domain, Change from Baseline to Week 12, Mean (SD)", "setting": "[2]", "result": "2.1 (6.61)"}, {"measurement": "BACS Working Memory Cognition Domain, Change from Baseline to Week 12, Median", "setting": "[2]", "result": 1.0}, {"measurement": "BACS Working Memory Cognition Domain, Week 6, Mean (SD)", "setting": "[2]", "result": "40.8 (14.10)"}, {"measurement": "BACS Working Memory Cognition Domain, Week 6, Median", "setting": "[2]", "result": 42.0}, {"measurement": "BACS Working Memory Cognition Domain, Week 12, Mean (SD)", "setting": "[2]", "result": "42.0 (13.95)"}, {"measurement": "BACS Working Memory Cognition Domain, Week 12, Median", "setting": "[2]", "result": 42.5}, {"measurement": "BACS Attention Cognition Domain, Change from Baseline to Week 6, Mean (SD)", "setting": "50 mg, Week 6", "result": "0.9 (7.74)"}, {"measurement": "BACS Attention Cognition Domain, Change from Baseline to Week 6, Median", "setting": "50 mg, Week 6", "result": 0.0}, {"measurement": "BACS Attention Cognition Domain, Week 6, Mean (SD)", "setting": "50 mg, Week 6", "result": "36.0 (14.78)"}, {"measurement": "BACS Attention Cognition Domain, Week 6, Median", "setting": "50 mg, Week 6", "result": 34.0}, {"measurement": "BACS Executive Functions Cognition Domain, Change from Baseline to Week 6, Mean (SD)", "setting": "50 mg, Week 6", "result": "1.6 (10.55)"}, {"measurement": "BACS Executive Functions Cognition Domain, Change from Baseline to Week 6, Median", "setting": "50 mg, Week 6", "result": 2.0}, {"measurement": "BACS Executive Functions Cognition Domain, Week 6, Mean (SD)", "setting": "50 mg, Week 6", "result": "44.9 (11.66)"}, {"measurement": "BACS Executive Functions Cognition Domain, Week 6, Median", "setting": "50 mg, Week 6", "result": 48.5}, {"measurement": "BACS Verbal Fluency Cognition Domain, Change from Baseline to Week 6, Mean (SD)", "setting": "50 mg, Week 6", "result": "−0.2 (5.57)"}, {"measurement": "BACS Verbal Fluency Cognition Domain, Change from Baseline to Week 6, Median", "setting": "50 mg, Week 6", "result": 0.0}, {"measurement": "BACS Verbal Fluency Cognition Domain, Week 6, Mean (SD)", "setting": "50 mg, Week 6", "result": "39.9 (10.86)"}, {"measurement": "BACS Verbal Fluency Cognition Domain, Week 6, Median", "setting": "50 mg, Week 6", "result": 38.0}, {"measurement": "BACS Attention Cognition Domain, Adjusted Change from Baseline to Week 6, LS Mean (SE)", "setting": "50 mg, Week 6, MMRM", "result": "1.0 (0.90)"}]}
